Measurements published in PMC10900215 (JACS Au, 2024).
Several values for one entry are separate records, joined by “and”; a condition that tells them apart may be missing. Equal values may be shown once.

What was measured:
[1] = Cell viability assay (CellTiter-Glo) on MOLM-13; assay type: cell-based; conditions: human, MOLM-13 cells, average of two biological replicates; for viability at 72 h, […]: 2.5 µM
Method: (§1) MOLM-13, NOMO-1, THP-1, Kasumi-1, PC3, and DU145 cell lines were obtained from DSMZ-German Collection of Microorganisms and Cell Cultures GmbH. Cells were cultured in RPMI 1640 medium (11875093, Thermo Fisher Scientific) containing 10% FBS (16140071, Thermo Fisher Scientific) and 1% penicillin-streptomycin (15140122, Thermo Fisher Scientific) in 5% CO2 at 37 °C in a humidified incubator, with maintained cell densities at 0.5–1 × 10^6 cells/mL. All cell lines were tested negative for mycoplasma contamination (PCR-based assay by Microsynth, Switzerland).
Cell viability was determined using a CellTiter-Glo luminescent cell viability assay (Promega) based on the detection of ATP according to the manufacturer’s instructions. 100 μL of the reagent was added to each well and incubated for 10 min at room temperature. […] Background luminescence value was obtained from wells containing the CellTiter-Glo reagent and medium without cells. The resulting data was analyzed in GraphPad Prism 9.

METTL14 = assay: Cellular degradation assay (Western blot), METTL14 in MOLM-13; assay type: cell-based, human; conditions: MOLM-13, 24 h, 2 μM compound
Method: as §1
(§2) METTL3 (and METTL14) protein degradation was monitored by Western blot. Cells were treated with the indicated concentration of PROTACs or DMSO control (0.1% (v/v)) for 24h, 37 °C with 5% CO2. Samples were then collected and lysed with RIPA buffer with added protease inhibitors (11697498001, Roche). After SDS-PAGE, proteins were transferred to a nitrocellulose membrane, blocked (with 5% milk, 0.5% BSA in TBST buffer), and incubated overnight with primary antibodies. The following antibodies were used: GAPDH (no. 2118, Cell Signaling, 1:4000), β-actin (ab8226, Abcam, 1:2000), METTL3 (ab195352, Abcam, 1:1000), and METTL14 (ab220031, Abcam, 1:1000). Membranes were scanned using an LI-COR Odyssey DLx imager after incubation with appropriate secondary antibodies (antimouse IgG IRDye 680RD (926–68072, LI-COR, 1:10000) and goat anti-Rabbit IgG IRDye 800CW (926–32211, LI-COR, 1:10000)). Densitometry was performed in Image Studio Lite software and analyzed in GraphPad Prism 9.

METTL3-14 = METTL3-14 (Homo sapiens, UniProt Q86U44); assay: biochemical; set-up: with the full-length complex, the recombinant complex construct pFastBacDual-StrepII-GFP-TEV-METTL3-His-TEV-METTL14 was expressed; StrepII (N); GFP (N); TEV site (N); made in house; host or cells: baculovirus/Sf9 insect cells; conditions: inhibition of catalytic activity of METTL3-14, binary FRET assay
Text: For determining the half maximal inhibitory concentration (IC50) with the full-length complex, the recombinant complex construct pFastBacDual-StrepII-GFP-TEV-METTL3-His-TEV-METTL14 was expressed using the baculovirus/Sf9 insect cell expression system and purified as described previously.[21]
The inhibitory potencies of the PROTACs for METTL3 were quantified by a homogeneous time-resolved fluorescence (HTRF)-based enzyme assay as previously described.[40]

[2] = molecular target: T1, ternary complex CRBN/PROTAC/METTL3–14 (Homo sapiens, UniProt Q86U44+Q96SW2); assay: FRET-based ternary complex formation assay (TCFA); assay type: binding; conditions: for TCFA amplitude (mean ± SEM): Hook curve amplitude, fraction of the maximum of compound 16; for ECmax (nM) ± SD: PROTAC concentration at the maximum of the signal in the TCFA; for ECmax: TCFA, peak of the Hook curve
T1 construct: methyltransferase domains (MTD) of METTL3 (residues 354–580); His6 (N, cleaved yes); made in house; host or cells: METTL3-MTD/METTL14-MTD: baculovirus/Sf9; CRBN-TBD: E. coli Rosetta (DE3), co-expressed with BirA
Method: For protein expression, suspension cultures of Sf9 cells in […] medium (Thermo Fisher) were infected at a density of 2 × 10^6 mL^–1. […] The complex was further purified by size exclusion chromatography using a Superdex 200 Increase 10/300 GL column (Cytiva) in 20 mM Tris-Cl, pH 8.0, and 200 mM KCl. The complex was aliquoted and flash-frozen in liquid nitrogen and stored at −80 °C until further use.
Ternary complex formation between the PROTACs, METTL3, and CRBN was quantified by a homogeneous time-resolved fluorescence (HTRF)-based enzyme assay. […] Curves of titrations with the PROTACs were plotted in GraphPad Prism 9.5.1 and fitted with a Gaussian function, if appropriate. […] CRBN^TBD-Avi(biotin) was used at a final concentration of 10 nM. […] Anti-GST Eu^3+-labeled antibody (Cisbio, 61GSTKLB) was used at a final concentration of 0.8 nM. The final reaction volume was 20 μL in 50 mM HEPES (pH 7.5), 150 mM NaCl, 0.1% BSA, 100 mM KF. […] The ratio of the emissions [drawing 1] was considered for further analysis. […] The concentrations resulting in the maximum signal (ECmax) and the amplitudes of the Hook curves were determined from the parameters of the Gaussian fit (if appropriate) or as the coordinates of the data-point with the highest TR-FRET signal.
For the ternary complex formation assay (TCFA), one of the protein partners must have a GST-tag and the other a biotin-tag.

METTL3 = molecular target: T2, METTL3 (Homo sapiens, UniProt Q86U44); assay: Cellular degradation assay (Western blot), METTL3 in MOLM-13; assay type: cell-based; conditions: MOLM-13, 24 h, 2 μM compound
T2 construct: METTL3–14 degradation up to 70% of the endogenous level; endogenous in cells; host or cells: MOLM-13, PC3, DU145
Method: as §1, §2

T2 sequence (Q86U44 2-580 limits assumed): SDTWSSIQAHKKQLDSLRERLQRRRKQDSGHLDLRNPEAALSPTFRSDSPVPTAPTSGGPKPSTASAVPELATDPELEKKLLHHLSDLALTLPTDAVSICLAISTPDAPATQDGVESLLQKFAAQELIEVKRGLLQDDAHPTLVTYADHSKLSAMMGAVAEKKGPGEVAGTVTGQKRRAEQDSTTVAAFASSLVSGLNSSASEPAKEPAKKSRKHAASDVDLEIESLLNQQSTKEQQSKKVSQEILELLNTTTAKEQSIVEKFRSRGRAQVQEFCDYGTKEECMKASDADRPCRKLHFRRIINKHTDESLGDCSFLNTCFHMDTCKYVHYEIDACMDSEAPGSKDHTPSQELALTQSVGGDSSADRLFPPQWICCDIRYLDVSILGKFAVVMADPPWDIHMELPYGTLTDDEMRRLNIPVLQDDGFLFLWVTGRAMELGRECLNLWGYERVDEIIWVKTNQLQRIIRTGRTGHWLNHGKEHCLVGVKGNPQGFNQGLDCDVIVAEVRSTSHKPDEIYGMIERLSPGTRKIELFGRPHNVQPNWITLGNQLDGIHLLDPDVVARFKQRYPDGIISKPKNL
T2 sequence (Q9HCE5 whole entry partner): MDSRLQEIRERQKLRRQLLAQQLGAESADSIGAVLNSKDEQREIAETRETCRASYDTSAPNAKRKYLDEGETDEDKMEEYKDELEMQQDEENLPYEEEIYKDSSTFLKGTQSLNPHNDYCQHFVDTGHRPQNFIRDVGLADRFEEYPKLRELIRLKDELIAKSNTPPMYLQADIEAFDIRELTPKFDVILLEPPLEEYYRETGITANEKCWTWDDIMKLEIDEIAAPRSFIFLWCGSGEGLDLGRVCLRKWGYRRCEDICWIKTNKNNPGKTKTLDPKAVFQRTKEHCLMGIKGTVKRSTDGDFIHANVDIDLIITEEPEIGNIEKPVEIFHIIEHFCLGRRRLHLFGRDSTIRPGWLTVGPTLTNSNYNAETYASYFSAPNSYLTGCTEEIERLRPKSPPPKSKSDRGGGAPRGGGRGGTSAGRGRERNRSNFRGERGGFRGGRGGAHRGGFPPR
T1 sequence (Q86U44 354-580): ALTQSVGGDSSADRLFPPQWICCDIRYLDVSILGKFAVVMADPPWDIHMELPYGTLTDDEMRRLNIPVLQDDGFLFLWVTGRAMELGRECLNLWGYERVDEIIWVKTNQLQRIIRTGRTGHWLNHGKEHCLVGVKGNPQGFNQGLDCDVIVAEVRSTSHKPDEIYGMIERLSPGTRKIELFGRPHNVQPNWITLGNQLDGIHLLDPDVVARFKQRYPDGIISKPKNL
T1 sequence (Q9HCE5 107-395 partner limits assumed): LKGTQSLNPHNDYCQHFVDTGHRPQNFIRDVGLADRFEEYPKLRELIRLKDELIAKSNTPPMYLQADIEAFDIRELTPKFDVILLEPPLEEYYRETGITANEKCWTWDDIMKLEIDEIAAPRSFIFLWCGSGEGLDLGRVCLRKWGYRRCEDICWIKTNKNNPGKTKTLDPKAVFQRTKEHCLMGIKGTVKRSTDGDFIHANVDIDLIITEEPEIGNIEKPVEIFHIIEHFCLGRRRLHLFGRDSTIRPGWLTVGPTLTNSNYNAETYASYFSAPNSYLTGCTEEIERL
T1 sequence (Q96SW2 318-442): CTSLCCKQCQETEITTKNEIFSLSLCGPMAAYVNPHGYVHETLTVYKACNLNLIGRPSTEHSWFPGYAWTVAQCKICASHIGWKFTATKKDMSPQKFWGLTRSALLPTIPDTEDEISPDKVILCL
METTL3-14, sequence (Q86U44 whole entry): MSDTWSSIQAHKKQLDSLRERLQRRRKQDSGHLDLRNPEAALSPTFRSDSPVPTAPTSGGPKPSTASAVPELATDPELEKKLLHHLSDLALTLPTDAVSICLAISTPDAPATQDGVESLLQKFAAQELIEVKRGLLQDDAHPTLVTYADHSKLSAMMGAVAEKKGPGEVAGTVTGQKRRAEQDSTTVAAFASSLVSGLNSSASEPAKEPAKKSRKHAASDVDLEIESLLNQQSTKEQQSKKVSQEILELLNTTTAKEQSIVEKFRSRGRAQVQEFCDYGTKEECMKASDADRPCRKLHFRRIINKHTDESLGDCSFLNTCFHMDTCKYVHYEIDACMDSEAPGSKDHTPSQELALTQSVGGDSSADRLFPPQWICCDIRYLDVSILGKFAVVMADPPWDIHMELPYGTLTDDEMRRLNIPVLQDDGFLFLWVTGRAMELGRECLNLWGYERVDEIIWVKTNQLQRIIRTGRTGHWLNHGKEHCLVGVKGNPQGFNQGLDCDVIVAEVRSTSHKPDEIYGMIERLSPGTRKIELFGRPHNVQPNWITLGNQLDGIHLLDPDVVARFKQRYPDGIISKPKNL
METTL3-14, sequence (Q9HCE5 whole entry, further chain): as the sequence (Q9HCE5 whole entry partner) above

CC1(C)CCN(Cc2cc(F)c(N3CC(=O)NC4(CCN(c5cc(NCc6cn(CCCCCCCCCCC(=O)Nc7cccc8c7CN(C7CCC(=O)NC7=O)C8=O)nn6)ncn5)CC4)C3)cc2F)CC1 (stereo not drawn) [Compound 27]
viability at 72 h, 0.6 µM [1]: 95.2% | viability at 72 h, 1.25 µM [1]: 88.7% | viability at 72 h, […] [1]: 92.6% | viability at 72 h, 5 µM [1]: 95.5% | viability at 72 h, 10 µM [1]: 90.9% | MOLM-13 West. blot at 24h 2 μM comp conc. Degradation (%) of METTL14 (METTL14): / (Degradation <10% or stabilization) | IC50 (METTL3-14): 610 ± 230 nM | TCFA amplitude (mean ± SEM) [2]: 0.7 ± 0.0 | ECmax (nM) ± SD [2]: 1100 ± 330 nM | MOLM-13 West. blot at 24h 2 μM comp conc. Degradation (%) of METTL3 (METTL3): 12% and 12 ± 43%

CC1(C)CCN(Cc2cc(F)c(N3CC(=O)NC4(CCN(c5cc(NCc6cccc(CNC(=O)CCCCCCCCn7cc(CNc8cccc9c8C(=O)N(C8CCC(=O)NC8=O)C9=O)nn7)c6)ncn5)CC4)C3)cc2F)CC1 (stereo not drawn) [Compound 19]
viability at 72 h, 0.6 µM [1]: 104% | viability at 72 h, 1.25 µM [1]: 104% | viability at 72 h, […] [1]: 102% | viability at 72 h, 5 µM [1]: 97.1% | viability at 72 h, 10 µM [1]: 87.6% | MOLM-13 West. blot at 24h 2 μM comp conc. Degradation (%) of METTL14 (METTL14): 40% and 40 ± 16% | IC50 (METTL3-14): 88 ± 21 nM | TCFA amplitude (mean ± SEM) [2]: 0.9 ± 0.1 | ECmax (nM) ± SD [2]: 920 ± 150 nM | MOLM-13 West. blot at 24h 2 μM comp conc. Degradation (%) of METTL3 (METTL3): 33% and 33 ± 17%

CC1(C)CCN(Cc2cc(F)c(N3CC(=O)NC4(CCN(c5cc(NCCCNC(=O)CCCCCCCCCCNc6cccc7c6CN(C6CCC(=O)NC6=O)C7=O)ncn5)CC4)C3)cc2F)CC1 (stereo not drawn) [Compound 11]
viability at 72 h, 10 µM [1]: 84.6% | MOLM-13 West. blot at 24h 2 μM comp conc. Degradation (%) of METTL14 (METTL14): 17 ± 22% | IC50 (METTL3-14): 300 ± 40 nM | TCFA amplitude (mean ± SEM) [2]: 0.3 ± 0.0 | ECmax (nM) ± SD [2]: 910 ± 40 nM | ECmax [2]: below 1 μM | MOLM-13 West. blot at 24h 2 μM comp conc. Degradation (%) of METTL3 (METTL3): / (Degradation <10% or stabilization)

CC1(C)CCN(Cc2cc(F)c(N3CC(=O)NC4(CCN(c5cc(NCc6cccc(CNC(=O)CCn7cc(CNc8cccc9c8C(=O)N(C8CCC(=O)NC8=O)C9=O)nn7)c6)ncn5)CC4)C3)cc2F)CC1 (stereo not drawn) [Compound 18]
viability at 72 h, 0.6 µM [1]: 101% | viability at 72 h, 1.25 µM [1]: 105% | viability at 72 h, […] [1]: 104% | viability at 72 h, 5 µM [1]: 102% | viability at 72 h, 10 µM [1]: 105% | MOLM-13 West. blot at 24h 2 μM comp conc. Degradation (%) of METTL14 (METTL14): 30 ± 12% | IC50 (METTL3-14): 14 ± 3 nM | TCFA amplitude (mean ± SEM) [2]: 0.6 ± 0.1 | ECmax (nM) ± SD [2]: 80 ± 0 nM | MOLM-13 West. blot at 24h 2 μM comp conc. Degradation (%) of METTL3 (METTL3): 19 ± 13%

CC1(C)CCN(Cc2cc(F)c(N3CC(=O)NC4(CCN(c5cc(NCc6cccc(CNC(=O)CCCCCCCCCCNc7cccc8c7CN(C7CCC(=O)NC7=O)C8=O)c6)ncn5)CC4)C3)cc2F)CC1 (stereo not drawn) [Compound 17]
viability at 72 h, 0.6 µM [1]: 106% | viability at 72 h, 1.25 µM [1]: 109% | viability at 72 h, […] [1]: 112% | viability at 72 h, 5 µM [1]: 106% | viability at 72 h, 10 µM [1]: 106% | MOLM-13 West. blot at 24h 2 μM comp conc. Degradation (%) of METTL14 (METTL14): 13 ± 6% | IC50 (METTL3-14): 160 ± 20 nM | TCFA amplitude (mean ± SEM) [2]: 1.0 ± 0.0 | ECmax (nM) ± SD [2]: 920 ± 160 nM | MOLM-13 West. blot at 24h 2 μM comp conc. Degradation (%) of METTL3 (METTL3): / (Degradation <10% or stabilization)

CC1(C)CCN(Cc2cc(F)c(N3CC(=O)NC4(CCN(c5cc(NCc6cccc(CNC(=O)CCCCCNc7cccc8c7C(=O)N(C7CCC(=O)NC7=O)C8=O)c6)ncn5)CC4)C3)cc2F)CC1 (stereo not drawn) [Compound 15]
viability at 72 h, 0.6 µM [1]: 91.2% | viability at 72 h, 1.25 µM [1]: 94.8% | viability at 72 h, […] [1]: 97.2% | viability at 72 h, 5 µM [1]: 89.4% | viability at 72 h, 10 µM [1]: 84.6% | MOLM-13 West. blot at 24h 2 μM comp conc. Degradation (%) of METTL14 (METTL14): / (Degradation <10% or stabilization) | IC50 (METTL3-14): 33 ± 4 nM | TCFA amplitude (mean ± SEM) [2]: 0.8 ± 0.1 | ECmax (nM) ± SD [2]: 640 ± 30 nM | MOLM-13 West. blot at 24h 2 μM comp conc. Degradation (%) of METTL3 (METTL3): / (Degradation <10% or stabilization)

CC1(C)CCN(Cc2ccc(N3CC(=O)NC4(CCN(c5cc(NCCCNC(=O)CCOCCOCCOCCNc6cccc7c6C(=O)N(C6CCC(=O)NC6=O)C7=O)ncn5)CC4)C3)cc2)CC1 (stereo not drawn) [Compound 2]
MOLM-13 West. blot at 24h 2 μM comp conc. Degradation (%) of METTL14 (METTL14): / (Degradation <10% or stabilization) | IC50 (METTL3-14): 1060 ± 220 nM | TCFA amplitude (mean ± SEM) [2]: 0.3 ± 0.1 | ECmax (nM) ± SD [2]: 2800 ± 280 nM | ECmax [2]: 2.8 µM | MOLM-13 West. blot at 24h 2 μM comp conc. Degradation (%) of METTL3 (METTL3): / (Degradation <10% or stabilization)
